According to US12172941B2, “Organic compound and organic light-emitting device” (CANON KABUSHIKI KAISHA, priority 2020, dated 2024):

Tests used:
Type in all cases: physicochemical
[1] = Absolute PL quantum yield in solution (C9920-02); conditions: room temperature, relative value
[2] = Photoluminescence emission spectrum of toluene solution (F-4500); conditions: toluene solution 1×10^−5 mol/l, room temperature, excitation 350 nm
Description: The measurement was performed by measuring photoluminescence with F-4500 manufactured by Hitachi, Ltd. at room temperature and at an excitation wavelength of 350 nm.

[3] = Difference between decomposition temperature (TG/DTA) and sublimation temperature; conditions: decomposition: 5% weight loss in TG/DTA; sublimation: vacuum 1×10^−1 Pa, Ar flow
Text: The decomposition temperature is a temperature at which the weight loss reaches 5% in TG/DTA measurement. […] In the toluene solubility test performed in a nitrogen atmosphere under reflux by heating while stirring, dissolution was visually inspected and was expressed as a relative value with respect to the amount of toluene (1.0) used to completely dissolve the exemplary compound A1.

## Cc1ccc(-c2cc3c4cc5c(cc4c(-c4ccc(C)cc4)cc3c3cc4c(cc23)-c2cc3ccccc3c3cccc-4c23)-c2cc3ccccc3c3cccc-5c23)cc1 [Exemplary compound D2]
[1]; exemplary compound D2 = 1.00
  Quantum yield: 1.00
[2]
  λmax: 453

## c1ccc(-c2c3c(c(-c4ccccc4)c4c2ccc2c5cc6c(cc5ccc24)-c2cccc4cccc-6c24)-c2cccc4cccc-3c24)cc1 [Comparative compound (2)]
[3]
  Decomposition temperature-sublimation temperature: 70 °C

## c1ccc(-c2cc3c4cc5c(cc4c(-c4ccccc4)cc3c3cc4c(cc23)-c2cccc3cccc-4c23)-c2cccc3cccc-5c23)cc1 [Comparative compound (1)]
[1]; exemplary compound A17 = 1.00
  Quantum yield: 0.95
[1]; exemplary compound D2 = 1.00
  Quantum yield: 0.95
[2]
  Emission wavelength max: 449
  λmax: 449

## c1ccc(-c2c3c(c(-c4ccccc4)c4c2ccc2c5cc6c(cc5ccc24)-c2cccc4cccc-6c24)-c2cc4ccccc4c4cccc-3c24)cc1 [Exemplary compound A1]
[3]
  Decomposition temperature-sublimation temperature: 90 °C

## c1ccc(-c2cc3c4cc5c(cc4c(-c4ccccc4)cc3c3cc4c(cc23)-c2cccc3cccc-4c23)-c2cccc3c2c-5cc2ccccc23)cc1 [Exemplary compound A17]
[1]; exemplary compound A17 = 1.00
  Quantum yield: 1.00
[2]
  Emission wavelength max: 449
